{
  "source": "patent US20030134779A1",
  "about": "“Method and composition for treatment and/or prevention of antibiotic-resistant microorganism infections” (priority 2002, published 2003)",
  "type_in_all_cases": "cell-based, Staphylococcus aureus",
  "key": {"S. aureus SHY97-3906": {"tested_on": "S. aureus SHY97-3906", "experiment": "Checkerboard MICs and FIC index, penicillin with bovine LF", "details": "for Decrease (of MIC of penicillin): by combination with bovine LF", "experimental": "(§1) The MICs were determined by both macrodilution (1 ml/tube) and microdilution (100 μl/well) in sterile 96 well microtiter plates (International Nunc, Napierville, Ill.) techniques in three separate experiments according to the National Committee for Clinical Laboratory Standards (1992 and 1999) in three separate experiments. Serial 2-fold dilutions in MHB of LF, LFC, antibiotic or combination of LF or LFC with antibiotic were inoculated with an overnight culture at a final inoculum of 10^6 cfu/ml in MHB. Effect of LF combination with antibiotic on MICs were determined by adding 0.5 mg or 1 mg/ml of LF to each antibiotic dilution. The MIC was defined as the lowest concentration of drug (highest dilution) that caused a complete inhibition of bacterial growth after an incubation of 18 h. Effect of LF or LFC combination with antibiotic on MIC was also determined by checkerboard method using 96 well microtiter plates. Each antibiotic dilution (50 μl) was serially added to the wells in vertical rows starting from the top (lower dilution) to the bottom. Lactoferrin or LFC (50 μl) were added to 50 μl of each antibiotic dilution and serially diluted starting at the left (lower dilution) to the right. After inoculation, the final concentration of antibiotic from top to bottom were 32 to 8, 2 to 0.5, 0.5 to 0.125 μg/ml for penicillin, cefazolin and neomycin, respectively. From left to right, the concentration of LF or LFC were 25 to 0.0244 mg/ml or 256 to 0.5 μg/ml respectively in a final volume of 100 μl/well. The microplate's were incubated at 37° C. for 24 h. Bacterial growth was measured optically at 540 nm using Spectra Max 250 Microplate Spectrophotometer System of Molecular Device (Fisher Scientific, Ottawa, Canada). Tubes were incubated at 37° C. for 18 h and bacterial growth was measured by visual examination and optically at 540 nm using a spectrophotometer (Philips PU 8800; Pye Unican Ltd, Cambridge, UK). The fractional inhibitory concentration (FIC) was calculated as described by Eliopoulos and Moellering (1991).\n(§2) FIC antibiotic A=MICantibiotic A (in the presence of antibiotic B)/MICantibiotic A alone. FIC Index=FICantibiotic A+FICantibiotic B\n(§3) The effects of the antibiotics were considered to be synergistic or indifferent when FIC Index was<1 or>1, respectively."}, "S. aureus SHY97-4320": {"tested_on": "S. aureus SHY97-4320", "experiment": "Checkerboard MICs and FIC index, penicillin with bovine LF", "details": "for Decrease (of MIC of penicillin): by combination with bovine LF", "experimental": "as §1, §2, §3"}, "S. aureus ATCC 25923 [1]": {"tested_on": "S. aureus ATCC 25923", "experiment": "Checkerboard MICs and FIC index, penicillin with bovine LF", "experimental": "as §1, §2, §3"}, "S. aureus PC-1 [2]": {"tested_on": "S. aureus PC-1", "experiment": "Checkerboard MICs and FIC index, penicillin with bovine LF", "details": "by combination with bovine LF", "experimental": "as §1, §2, §3"}, "S. aureus ATCC 25923 [3]": {"tested_on": "S. aureus ATCC 25923", "experiment": "Cell morphology by transmission electron microscopy", "experimental": "(§4) Bacterial cells were grown overnight on MHA or MHB containing sub-MICs of penicillin G with or without LF or LFC. Microorganisms were prepared for transmission electron microscopy by fixation with glutaraldehyde followed by ferritin labelling. This method allows good- preservation of capsular material. Briefly, bacterial cells grown in the presence or absence of antibiotics were fixed in cacodylate buffer (0.1 M, pH 7.0) containing 5% (v/v) glutaraldehyde, for 2 h at 20° C. Fixed microorganims were suspended in cacodylate buffer and allowed to react with the polycationic ferritin (Sigma Chemicals, St-Louis, Mo.; final concentration 1.0 mg/ml) for 30 min at 20° C. The reaction was slowed down by 10-fold dilution with buffer, and the microorganisms were centrifuged and washed three times in cacodylate buffer. Bacterial cells were then immobilized in 4% (w/v) agar, washed 5 times in cacodylate buffer and post-fixed with 2% (w/v) osmium tetroxide for 2 h. Washings were repeated as above, and the samples dehydrated in a graded series of acetone washes. Samples were then washed twice in propylene oxide and embedded in Spurr low-viscosity resin. Thin sections were post-stained with uranyl acetate and lead citrate and examined with an electron microscope (Philips 201) at an accelerating voltage of 60 kV."}, "S. aureus PC-1 [4]": {"tested_on": "S. aureus PC-1", "experiment": "Cell morphology by transmission electron microscopy", "details": "penicillin G 8 μg/ml alone; 4-h", "experimental": "as §4\nBacterial cells of PC-1 (a constitutively high producing β-lactamase strain) were grown overnight in MHB containing 8 μg/ml of penicillin G, 16 μg/ml of LFC alone or in combination for 4-h at 37° C. with agitation at 150 rpm. Bacteria cell morphology was evaluated by transmission electron microscopy after fixation and ferritin labelling method as previously described."}, "[5]": {"tested_on": "β-lactamase activity of S. aureus SHY97-4320", "experiment": "β-lactamase activity, nitrocefin assay, human LF", "details": "8-μg/ml penicillin G alone", "experimental": "Penicillin G was purchased from Novopharm Limited (Toronto, Ontario, Canada). […] Antibiotic stock solutions were always freshly prepared and diluted to the desired concentration in Mueller Hinton broth (MHB) medium (Difco Laboratories, Detroit, MI). β-Lactamase activity was measured using a quantitative spectrophotometric assay with the chromogenic cephalosporin nitrocefin. Bacterial cells were first exposed to penicillin and/or LF during 4 and 22-h in broth. At each time point, the number of cfu/ml were determined and cells aliquots were centrifuged.\nThe pellets were suspended in 10 mM HEPES buffer (pH 7.4) to an OD415 nm of 0.4 for PC-1 and 4 for strain SHY97-4320. Nitrocefin (100 μM) was added to 20 μl of cells in a final volume of 200 μl. Hydrolysis was measured at 486 nm on a Spectra Max 250 Microplate Spectrophotometer System of Molecular Device (Fisher Scientific, Ottawa, Canada). β-Lactamase activity was expressed as ΔO.D.486 nm/min and corrected for bacterial OD."}},
  "data": [
    {"smiles": "CC1(C)S[C@@H]2[C@H](NC(=O)Cc3ccccc3)C(=O)N2[C@H]1C(=O)O", "note": "[penicillin G, Penicillin G]", "values": [
      {"measurement": "MIC", "setting": "S. aureus SHY97-3906; Staphylococcus aureus, SHY973906, in combination with bovine LF, checkerboard", "value": 0.125, "unit": "µg/mL"},
      {"measurement": "Decrease (of MIC of penicillin)", "setting": "S. aureus SHY97-3906; listed as Penicillin", "value": 4, "unit": "fold"},
      {"measurement": "Decrease (of MIC of penicillin)", "setting": "S. aureus SHY97-3906; listed as penicillin", "value": "four fold"},
      {"measurement": "MIC", "setting": "S. aureus SHY97-4320; Staphylococcus aureus, SHY974320, in combination with bovine LF, checkerboard", "value": 16, "unit": "µg/mL"},
      {"measurement": "Decrease (of MIC of penicillin)", "setting": "S. aureus SHY97-4320; listed as Penicillin", "value": 4, "unit": "fold"},
      {"measurement": "Decrease (of MIC of penicillin)", "setting": "S. aureus SHY97-4320; listed as penicillin", "value": "four fold"},
      {"measurement": "MIC", "setting": "S. aureus ATCC 25923 [1]; Staphylococcus aureus, ATCC25923, in combination with bovine LF, checkerboard", "value": 0.0156, "unit": "µg/mL"},
      {"measurement": "Decrease (of MIC of penicillin)", "setting": "S. aureus ATCC 25923 [1]; by combination with bovine LF", "value": 2, "unit": "fold"},
      {"measurement": "Decrease (of MIC of penicillin)", "setting": "S. aureus PC-1 [2]; listed as Penicillin", "value": "≧2 fold"},
      {"measurement": "Decrease (of MIC of penicillin)", "setting": "S. aureus PC-1 [2]; listed as penicillin", "value": "≥ 2", "unit": "fold"},
      {"measurement": "cell morphology", "setting": "S. aureus ATCC 25923 [3]; penicillin G 0.0078 μg/ml alone, 18-h", "value": "induced formation of large symmetrically arranged pseudomulticellular staphylococci"},
      {"measurement": "cell morphology", "setting": "S. aureus ATCC 25923 [3]; penicillin G 0.0078 μg/ml with LF 9.1 μg/ml", "value": "asymmetrically arranged pseudomulticellular staphylococci were formed"},
      {"measurement": "cell morphology", "setting": "S. aureus PC-1 [4]", "value": "no effects on morphology"},
      {"measurement": "β-lactamase activity", "setting": "[5]", "value": "present"}
    ]}
  ]
}
